Each structure is given as a SMILES string. Positions of bridges follow the written chain, without caps; N, C: chain ends. Non-standard residues stand in square brackets, D forms with d. Residues, ends and D or L forms follow the SMILES beside them. Cit = NC(=O)NCCC[C@H](N)C(=O)O

Holding throughout (test): cell-based
In assay [1] the target is hNav1.7 (Homo sapiens, UniProt Q15858). Type of assay: cell-based. The following applies: IonWorks Quattro, use-dependent block, hNav1.7; read-out: IWQ Use Nav1.7. For orientation: Patch clamp records ionic current or voltage across a cell membrane.
Assay [2] concerns the target hNav1.5 (Homo sapiens, UniProt Q14524). The following applies: IonWorks Quattro, use-dependent block, hNav1.5; read-out: IWQ Use Nav1.5.
Assay [3] addresses hNav1.3 (Homo sapiens, UniProt Q9NY46). Particulars: IonWorks Quattro, use-dependent block, hNav1.3; read-out: IWQ Use Nav1.3.

Sequence of hNav1.3 (Q9NY46 whole entry, looked up): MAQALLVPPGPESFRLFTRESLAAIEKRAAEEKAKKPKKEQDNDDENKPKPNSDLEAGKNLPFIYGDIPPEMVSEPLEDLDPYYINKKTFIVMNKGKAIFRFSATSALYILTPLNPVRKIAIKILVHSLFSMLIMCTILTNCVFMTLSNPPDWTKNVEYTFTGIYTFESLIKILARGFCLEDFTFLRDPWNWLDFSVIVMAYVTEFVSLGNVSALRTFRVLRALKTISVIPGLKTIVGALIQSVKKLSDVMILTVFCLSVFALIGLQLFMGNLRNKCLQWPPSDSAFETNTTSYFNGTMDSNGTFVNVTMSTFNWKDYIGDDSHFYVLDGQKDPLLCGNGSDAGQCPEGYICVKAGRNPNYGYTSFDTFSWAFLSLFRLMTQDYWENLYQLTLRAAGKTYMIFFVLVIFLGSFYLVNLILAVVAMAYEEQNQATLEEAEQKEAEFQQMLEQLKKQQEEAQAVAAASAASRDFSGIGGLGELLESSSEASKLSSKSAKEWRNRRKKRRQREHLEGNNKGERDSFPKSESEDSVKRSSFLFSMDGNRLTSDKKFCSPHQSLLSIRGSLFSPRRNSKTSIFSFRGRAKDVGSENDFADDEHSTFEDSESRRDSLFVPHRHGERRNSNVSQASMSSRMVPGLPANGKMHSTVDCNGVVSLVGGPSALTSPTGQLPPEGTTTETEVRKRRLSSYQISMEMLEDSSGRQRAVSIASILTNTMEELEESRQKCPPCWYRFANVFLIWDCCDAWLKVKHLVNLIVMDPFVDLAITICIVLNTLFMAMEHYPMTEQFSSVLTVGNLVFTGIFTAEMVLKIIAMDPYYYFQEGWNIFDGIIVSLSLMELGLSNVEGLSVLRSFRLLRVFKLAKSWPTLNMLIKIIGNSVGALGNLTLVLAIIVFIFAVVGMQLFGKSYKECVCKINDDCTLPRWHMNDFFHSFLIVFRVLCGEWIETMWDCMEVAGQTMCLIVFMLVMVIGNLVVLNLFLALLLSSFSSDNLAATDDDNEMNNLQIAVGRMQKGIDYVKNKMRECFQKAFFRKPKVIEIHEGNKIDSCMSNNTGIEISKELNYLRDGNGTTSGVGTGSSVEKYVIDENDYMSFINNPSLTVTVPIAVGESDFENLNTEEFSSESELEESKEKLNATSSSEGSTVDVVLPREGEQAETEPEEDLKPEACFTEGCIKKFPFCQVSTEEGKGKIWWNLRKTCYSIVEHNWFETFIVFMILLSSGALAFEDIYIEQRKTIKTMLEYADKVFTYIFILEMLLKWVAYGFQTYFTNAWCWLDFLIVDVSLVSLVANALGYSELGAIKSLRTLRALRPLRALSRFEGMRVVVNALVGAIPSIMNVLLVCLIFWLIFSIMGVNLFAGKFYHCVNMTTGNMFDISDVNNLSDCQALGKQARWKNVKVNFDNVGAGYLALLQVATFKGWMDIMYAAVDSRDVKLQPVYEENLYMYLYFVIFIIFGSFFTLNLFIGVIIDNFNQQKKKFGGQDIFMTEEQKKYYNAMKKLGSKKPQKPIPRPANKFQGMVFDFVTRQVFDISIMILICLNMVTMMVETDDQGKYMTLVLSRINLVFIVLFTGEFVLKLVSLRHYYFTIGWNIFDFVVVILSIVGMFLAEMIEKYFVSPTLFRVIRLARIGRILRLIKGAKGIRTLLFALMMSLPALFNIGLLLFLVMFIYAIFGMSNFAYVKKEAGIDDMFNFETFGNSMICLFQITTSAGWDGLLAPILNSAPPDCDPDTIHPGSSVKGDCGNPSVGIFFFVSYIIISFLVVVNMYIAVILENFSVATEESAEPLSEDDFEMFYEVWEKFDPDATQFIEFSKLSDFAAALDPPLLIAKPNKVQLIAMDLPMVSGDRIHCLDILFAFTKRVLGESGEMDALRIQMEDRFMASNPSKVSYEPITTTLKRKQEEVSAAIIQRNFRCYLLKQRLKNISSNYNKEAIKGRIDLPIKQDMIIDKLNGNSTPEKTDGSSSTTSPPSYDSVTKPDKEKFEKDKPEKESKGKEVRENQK
Sequence of hNav1.5 (Q14524 whole entry, looked up): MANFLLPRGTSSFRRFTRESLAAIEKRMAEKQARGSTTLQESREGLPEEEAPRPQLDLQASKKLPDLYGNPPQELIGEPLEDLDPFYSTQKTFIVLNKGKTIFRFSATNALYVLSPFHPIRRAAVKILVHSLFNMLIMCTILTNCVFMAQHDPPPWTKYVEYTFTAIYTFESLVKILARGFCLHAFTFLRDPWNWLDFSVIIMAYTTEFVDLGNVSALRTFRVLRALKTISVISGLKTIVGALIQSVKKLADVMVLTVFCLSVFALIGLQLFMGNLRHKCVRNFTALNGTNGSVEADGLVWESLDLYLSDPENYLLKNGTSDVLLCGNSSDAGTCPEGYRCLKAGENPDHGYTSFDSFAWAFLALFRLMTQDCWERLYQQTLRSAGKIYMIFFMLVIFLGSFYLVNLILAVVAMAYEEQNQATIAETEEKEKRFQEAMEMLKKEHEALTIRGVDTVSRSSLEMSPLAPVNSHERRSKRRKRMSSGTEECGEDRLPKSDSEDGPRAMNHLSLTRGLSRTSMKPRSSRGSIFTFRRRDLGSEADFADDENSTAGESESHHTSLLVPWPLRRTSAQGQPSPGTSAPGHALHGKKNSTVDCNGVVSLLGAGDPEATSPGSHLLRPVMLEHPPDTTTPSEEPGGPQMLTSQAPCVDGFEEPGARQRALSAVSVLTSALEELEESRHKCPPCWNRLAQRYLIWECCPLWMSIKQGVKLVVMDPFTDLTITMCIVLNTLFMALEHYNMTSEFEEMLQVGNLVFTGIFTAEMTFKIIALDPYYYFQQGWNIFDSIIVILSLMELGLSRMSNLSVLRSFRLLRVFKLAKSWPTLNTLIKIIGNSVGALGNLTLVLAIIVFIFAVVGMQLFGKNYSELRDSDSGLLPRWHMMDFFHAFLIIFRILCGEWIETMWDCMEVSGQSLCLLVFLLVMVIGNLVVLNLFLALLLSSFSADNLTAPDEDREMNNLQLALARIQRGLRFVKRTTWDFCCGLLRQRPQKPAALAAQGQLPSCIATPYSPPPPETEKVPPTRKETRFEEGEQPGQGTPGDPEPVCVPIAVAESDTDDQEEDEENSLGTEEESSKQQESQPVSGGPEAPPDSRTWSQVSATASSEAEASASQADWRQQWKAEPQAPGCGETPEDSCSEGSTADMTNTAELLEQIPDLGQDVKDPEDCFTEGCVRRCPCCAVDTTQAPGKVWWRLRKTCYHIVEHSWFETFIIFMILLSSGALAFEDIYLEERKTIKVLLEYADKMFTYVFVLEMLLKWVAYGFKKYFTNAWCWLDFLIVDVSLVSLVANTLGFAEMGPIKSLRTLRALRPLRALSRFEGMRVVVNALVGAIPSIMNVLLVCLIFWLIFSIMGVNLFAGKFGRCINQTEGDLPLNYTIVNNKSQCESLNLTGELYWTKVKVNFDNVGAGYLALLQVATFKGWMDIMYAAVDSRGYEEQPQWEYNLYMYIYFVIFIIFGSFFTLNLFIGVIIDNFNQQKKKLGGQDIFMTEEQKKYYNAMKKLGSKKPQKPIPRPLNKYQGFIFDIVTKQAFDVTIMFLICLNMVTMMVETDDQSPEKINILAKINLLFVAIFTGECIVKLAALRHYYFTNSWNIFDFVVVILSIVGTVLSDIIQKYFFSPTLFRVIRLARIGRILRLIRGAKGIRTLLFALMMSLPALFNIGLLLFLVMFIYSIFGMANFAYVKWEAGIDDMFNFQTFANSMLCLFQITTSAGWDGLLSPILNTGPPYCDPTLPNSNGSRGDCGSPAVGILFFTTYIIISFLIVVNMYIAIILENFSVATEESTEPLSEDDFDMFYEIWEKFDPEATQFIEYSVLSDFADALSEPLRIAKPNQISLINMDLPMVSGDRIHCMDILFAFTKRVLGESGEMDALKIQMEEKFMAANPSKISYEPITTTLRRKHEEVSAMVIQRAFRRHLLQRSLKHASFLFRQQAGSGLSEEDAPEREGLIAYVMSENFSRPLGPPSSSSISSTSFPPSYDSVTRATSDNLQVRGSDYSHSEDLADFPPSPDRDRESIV

`CC[C@H](C)[C@@H]1NC(=O)[C@@H]2CSSC[C@@H]3NC(=O)[C@H](C(C)C)NC(=O)[C@H](CC(C)C)NC(=O)[C@H](CC(N)=O)NC(=O)[C@@H]4CCCN4C(=O)[C@H](CCCNC(=N)N)NC(=O)[C@H](CSSC[C@H](NC(=O)[C@@H](N)CC(=O)O)C(=O)N[C@@H](CC(C)C)C(=O)NCC(=O)N[C@@H](C)C(=O)N[C@@H](CCSC)C(=O)N[C@@H](CCCNC(=N)N)C(=O)N[C@@H](CCCCN)C(=O)N2)NC(=O)[C@H](CSSC[C@@H](C(=O)N[C@@H](CCCCN)C(=O)N[C@@H](Cc2ccc(O)cc2)C(=O)N[C@H](C(=O)N[C@@H](Cc2ccccc2)C(N)=O)C(C)C)NC(=O)[C@H](Cc2c[nH]c4ccccc24)NC(=O)[C@H](Cc2ccc(O)cc2)NC(=O)[C@H](Cc2c[nH]cn2)NC(=O)[C@H]([C@@H](C)O)NC(=O)[C@H](CCCNC(=N)N)NC(=O)[C@H](CO)NC3=O)NC(=O)[C@H](CCCCN)NC(=O)[C@H](CC(=O)O)NC(=O)[C@H](CC(N)=O)NC(=O)[C@H](CC(=O)O)NC(=O)[C@@H]2CCCN2C1=O` [compound 765] (H-DCLGAMRKCIPDNDKCCRPNLVCSRTHYWCKYVF-NH2; disulfide 2-17, 9-23, 16-30): the values for the IC50 in assay [1], in assay [2] and in assay [3] were 0.79 µM, 42 µM and 1.4 µM, respectively.

As to `CC[C@H](C)[C@@H]1NC(=O)[C@@H]2CSSC[C@@H]3NC(=O)[C@H](C(C)C)NC(=O)[C@H](CC(C)C)NC(=O)[C@H](CC(N)=O)NC(=O)[C@@H]4CCCN4C(=O)[C@H](CCCNC(=N)N)NC(=O)[C@H](CSSC[C@H](NC(=O)[C@@H](N)CC(=O)O)C(=O)N[C@@H](CC(C)C)C(=O)NCC(=O)N[C@@H](C)C(=O)N[C@@H](CCSC)C(=O)N[C@@H](CCCNC(=N)N)C(=O)N[C@@H](CCCCN)C(=O)N2)NC(=O)[C@H](CSSC[C@@H](C(=O)N[C@@H](CCCCN)C(=O)N[C@@H](Cc2ccc(O)cc2)C(=O)N[C@H](C(=O)N[C@@H](Cc2ccccc2)C(N)=O)C(C)C)NC(=O)[C@H](Cc2c[nH]c4ccccc24)NC(=O)[C@H](CC(C)C)NC(=O)[C@H](Cc2c[nH]cn2)NC(=O)[C@H]([C@@H](C)O)NC(=O)[C@H](CCCNC(=N)N)NC(=O)[C@H](CO)NC3=O)NC(=O)[C@H](CCCCN)NC(=O)[C@H](CC(=O)O)NC(=O)[C@H](CC(N)=O)NC(=O)[C@H](CC(=O)O)NC(=O)[C@@H]2CCCN2C1=O` [compound 766] (H-DCLGAMRKCIPDNDKCCRPNLVCSRTHLWCKYVF-NH2; disulfide 2-17, 9-23, 16-30), the IC50 in assay [1] is 1.1 µM; in assay [2] it was 49.3 µM; in assay [3], 2.7 µM.

As to `CC[C@H](C)[C@@H]1NC(=O)[C@@H]2CSSC[C@@H]3NC(=O)[C@H](C(C)C)NC(=O)[C@H](CC(C)C)NC(=O)[C@H](CC(N)=O)NC(=O)[C@@H]4CCCN4C(=O)[C@H](CCCNC(=N)N)NC(=O)[C@H](CSSC[C@H](NC(=O)[C@@H](N)CC(=O)O)C(=O)N[C@@H](CC(C)C)C(=O)NCC(=O)N[C@@H](C)C(=O)N[C@@H](CCSC)C(=O)N[C@@H](CCCNC(=N)N)C(=O)N[C@@H](CCCCN)C(=O)N2)NC(=O)[C@H](CSSC[C@@H](C(=O)N[C@@H](CCCCN)C(=O)N[C@@H](Cc2ccc(O)cc2)C(=O)N[C@H](C(=O)N[C@@H](Cc2ccccc2)C(N)=O)C(C)C)NC(=O)[C@H](Cc2c[nH]c4ccccc24)NC(=O)[C@H](CC(N)=O)NC(=O)[C@H](Cc2c[nH]cn2)NC(=O)[C@H]([C@@H](C)O)NC(=O)[C@H](CCCNC(=N)N)NC(=O)[C@H](CO)NC3=O)NC(=O)[C@H](CCCCN)NC(=O)[C@H](CC(=O)O)NC(=O)[C@H](CC(N)=O)NC(=O)[C@H](CC(=O)O)NC(=O)[C@@H]2CCCN2C1=O` [compound 767] (H-DCLGAMRKCIPDNDKCCRPNLVCSRTHNWCKYVF-NH2; disulfide 2-17, 9-23, 16-30), the results for the IC50 in assay [1], in assay [2] and in assay [3] were 1.7 µM, more than 50 µM and 3.2 µM, respectively.

As for `CC[C@H](C)[C@@H]1NC(=O)[C@@H]2CSSC[C@@H]3NC(=O)[C@H](C(C)C)NC(=O)[C@H](CC(C)C)NC(=O)[C@H](CC(N)=O)NC(=O)[C@@H]4CCCN4C(=O)[C@H](CCCNC(=N)N)NC(=O)[C@H](CSSC[C@H](NC(=O)[C@@H](N)CC(=O)O)C(=O)N[C@@H](CC(C)C)C(=O)NCC(=O)N[C@@H](C)C(=O)N[C@@H](CCSC)C(=O)N[C@@H](CCCNC(=N)N)C(=O)N[C@@H](CCCCN)C(=O)N2)NC(=O)[C@H](CSSC[C@@H](C(=O)N[C@@H](CCCCN)C(=O)N[C@@H](Cc2ccc(O)cc2)C(=O)N[C@H](C(=O)N[C@@H](Cc2ccccc2)C(N)=O)C(C)C)NC(=O)[C@H](Cc2c[nH]c4ccccc24)NC(=O)[C@H](CCCCN)NC(=O)[C@H](Cc2c[nH]cn2)NC(=O)[C@H]([C@@H](C)O)NC(=O)[C@H](CCCNC(N)=O)NC(=O)[C@H](CO)NC3=O)NC(=O)[C@H](CCCCN)NC(=O)[C@H](CC(=O)O)NC(=O)[C@H](CC(N)=O)NC(=O)[C@H](CC(=O)O)NC(=O)[C@@H]2CCCN2C1=O` [compound 768] (H-DCLGAMRKCIPDNDKCCRPNLVCS[Cit]THKWCKYVF-NH2; disulfide 2-17, 9-23, 16-30), the IC50 in assay [1] amounted to 1.8 µM; in assay [2], 23.5 µM; in assay [3], 3.2 µM.

As to `CC[C@H](C)[C@@H]1NC(=O)[C@@H]2CSSC[C@@H]3NC(=O)[C@H](C(C)C)NC(=O)[C@H](CC(C)C)NC(=O)[C@H](CC(N)=O)NC(=O)[C@@H]4CCCN4C(=O)[C@H](CCCNC(=N)N)NC(=O)[C@H](CSSC[C@H](NC(=O)[C@@H](N)CC(=O)O)C(=O)N[C@@H](CC(C)C)C(=O)NCC(=O)N[C@@H](C)C(=O)N[C@@H](CCSC)C(=O)N[C@@H](CCCNC(=N)N)C(=O)N[C@@H](CCCCN)C(=O)N2)NC(=O)[C@H](CSSC[C@@H](C(=O)N[C@@H](CCCCN)C(=O)N[C@@H](Cc2ccc(O)cc2)C(=O)N[C@H](C(=O)N[C@@H](Cc2ccccc2)C(N)=O)C(C)C)NC(=O)[C@H](Cc2c[nH]c4ccccc24)NC(=O)[C@H](CC(=O)O)NC(=O)[C@H](Cc2c[nH]cn2)NC(=O)[C@H]([C@@H](C)O)NC(=O)[C@H](CCCNC(=N)N)NC(=O)[C@H](CO)NC3=O)NC(=O)[C@H](CCCCN)NC(=O)[C@H](CC(=O)O)NC(=O)[C@H](CC(N)=O)NC(=O)[C@H](CC(=O)O)NC(=O)[C@@H]2CCCN2C1=O` [compound 769] (H-DCLGAMRKCIPDNDKCCRPNLVCSRTHDWCKYVF-NH2; disulfide 2-17, 9-23, 16-30), the IC50 was more than 5 µM in assay [1], 39 µM in assay [2] and more than 5 µM in assay [3].

As to `CC[C@H](C)[C@@H]1NC(=O)[C@@H]2CSSC[C@@H]3NC(=O)[C@H](C(C)C)NC(=O)[C@H](CC(C)C)NC(=O)[C@H](CC(N)=O)NC(=O)[C@@H]4CCCN4C(=O)[C@H](CCCNC(=N)N)NC(=O)[C@H](CSSC[C@H](NC(=O)[C@@H](N)CC(=O)O)C(=O)N[C@@H](CC(C)C)C(=O)NCC(=O)N[C@@H](C)C(=O)N[C@@H](CCSC)C(=O)N[C@@H](CCCNC(=N)N)C(=O)N[C@@H](CCCCN)C(=O)N2)NC(=O)[C@H](CSSC[C@@H](C(=O)N[C@@H](CCCCN)C(=O)N[C@@H](Cc2ccc(O)cc2)C(=O)N[C@H](C(=O)N[C@@H](Cc2ccccc2)C(N)=O)C(C)C)NC(=O)[C@H](Cc2c[nH]c4ccccc24)NC(=O)[C@H](CCSC)NC(=O)[C@H](Cc2c[nH]cn2)NC(=O)[C@H]([C@@H](C)O)NC(=O)[C@H](CCCNC(=N)N)NC(=O)[C@H](CO)NC3=O)NC(=O)[C@H](CCCCN)NC(=O)[C@H](CC(=O)O)NC(=O)[C@H](CC(N)=O)NC(=O)[C@H](CC(=O)O)NC(=O)[C@@H]2CCCN2C1=O` [compound 770] (H-DCLGAMRKCIPDNDKCCRPNLVCSRTHMWCKYVF-NH2; disulfide 2-17, 9-23, 16-30), the IC50 in assay [1] is 1 µM; in assay [2], 45.4 µM; in assay [3], 4.1 µM.

The record behind these values is patent publication US9340590B2 (priority 2011, dated 2016).
